{
  "source": "paper PMC11247499",
  "about": "“2,8-Disubstituted-1,5-naphthyridines as Dual Inhibitors of Plasmodium falciparum Phosphatidylinositol-4-kinase and Hemozoin Formation with In Vivo Efficacy” (Journal of Medicinal Chemistry, 2024)",
  "key": {"cytochrome P450 3A4": {"biological_target": "cytochrome P450 3A4 (Homo sapiens, UniProt P08684)", "assay": "Cytochrome P450 inhibition, 3A4", "type": "in vitro ADME"}, "HuPI3Kα": {"biological_target": "HuPI3Kα (Homo sapiens, UniProt P42336)", "assay": "Human kinase inhibition, HuPI3Kα", "settings": "read-out: HuPI3Kα, IC50"}, "cytochrome P450 2C9": {"biological_target": "cytochrome P450 2C9 (Homo sapiens, UniProt P11712)", "assay": "Cytochrome P450 inhibition, 2C9", "type": "in vitro ADME"}, "[1]": {"assay": "Solubility, miniaturized shake flask method"}, "[2]": {"assay": "Plasma protein binding, mouse", "type": "in vitro ADME", "settings": "read-out: PPB fu, mouse"}, "Dd2_PI4K_CNV": {"test_system": "Dd2_PI4K_CNV", "assay": "microbe, parasite or virus in culture", "type": "cell-based", "settings": "Plasmodium falciparum, 72 h, read-out: Dd2_PI4K_CNV IC50"}, "cytochrome P450 2C19": {"biological_target": "cytochrome P450 2C19 (Homo sapiens, UniProt P33261)", "sequence (P33261 whole entry)": "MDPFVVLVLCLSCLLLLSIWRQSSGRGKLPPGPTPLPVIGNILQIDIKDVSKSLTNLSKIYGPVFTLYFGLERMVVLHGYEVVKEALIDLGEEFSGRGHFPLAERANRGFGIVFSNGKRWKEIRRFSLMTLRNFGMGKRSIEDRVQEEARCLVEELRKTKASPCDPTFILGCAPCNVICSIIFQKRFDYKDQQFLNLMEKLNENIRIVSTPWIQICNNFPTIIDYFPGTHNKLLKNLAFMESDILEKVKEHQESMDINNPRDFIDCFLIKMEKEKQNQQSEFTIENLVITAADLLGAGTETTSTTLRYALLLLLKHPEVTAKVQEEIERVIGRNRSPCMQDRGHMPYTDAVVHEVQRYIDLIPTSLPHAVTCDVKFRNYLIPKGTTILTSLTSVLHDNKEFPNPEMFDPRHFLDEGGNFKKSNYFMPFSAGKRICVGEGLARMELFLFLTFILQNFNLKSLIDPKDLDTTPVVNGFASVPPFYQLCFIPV", "assay": "Cytochrome P450 inhibition, 2C19", "type": "in vitro ADME"}, "[3]": {"test_system": "P. falciparum NF54 strain", "assay": "Antiplasmodial activity, parasite lactate dehydrogenase assay, NF54", "type": "cell-based, Plasmodium falciparum", "settings": "Plasmodium falciparum, NF54, 72 h, parasite lactate dehydrogenase assay over 72 h; read-out: Pf IC50 ± SD NF54"}, "PvPI4K": {"biological_target": "PvPI4K (Plasmodium vivax, UniProt A5KB26)", "sequence (A5KB26 entry or part of it)": "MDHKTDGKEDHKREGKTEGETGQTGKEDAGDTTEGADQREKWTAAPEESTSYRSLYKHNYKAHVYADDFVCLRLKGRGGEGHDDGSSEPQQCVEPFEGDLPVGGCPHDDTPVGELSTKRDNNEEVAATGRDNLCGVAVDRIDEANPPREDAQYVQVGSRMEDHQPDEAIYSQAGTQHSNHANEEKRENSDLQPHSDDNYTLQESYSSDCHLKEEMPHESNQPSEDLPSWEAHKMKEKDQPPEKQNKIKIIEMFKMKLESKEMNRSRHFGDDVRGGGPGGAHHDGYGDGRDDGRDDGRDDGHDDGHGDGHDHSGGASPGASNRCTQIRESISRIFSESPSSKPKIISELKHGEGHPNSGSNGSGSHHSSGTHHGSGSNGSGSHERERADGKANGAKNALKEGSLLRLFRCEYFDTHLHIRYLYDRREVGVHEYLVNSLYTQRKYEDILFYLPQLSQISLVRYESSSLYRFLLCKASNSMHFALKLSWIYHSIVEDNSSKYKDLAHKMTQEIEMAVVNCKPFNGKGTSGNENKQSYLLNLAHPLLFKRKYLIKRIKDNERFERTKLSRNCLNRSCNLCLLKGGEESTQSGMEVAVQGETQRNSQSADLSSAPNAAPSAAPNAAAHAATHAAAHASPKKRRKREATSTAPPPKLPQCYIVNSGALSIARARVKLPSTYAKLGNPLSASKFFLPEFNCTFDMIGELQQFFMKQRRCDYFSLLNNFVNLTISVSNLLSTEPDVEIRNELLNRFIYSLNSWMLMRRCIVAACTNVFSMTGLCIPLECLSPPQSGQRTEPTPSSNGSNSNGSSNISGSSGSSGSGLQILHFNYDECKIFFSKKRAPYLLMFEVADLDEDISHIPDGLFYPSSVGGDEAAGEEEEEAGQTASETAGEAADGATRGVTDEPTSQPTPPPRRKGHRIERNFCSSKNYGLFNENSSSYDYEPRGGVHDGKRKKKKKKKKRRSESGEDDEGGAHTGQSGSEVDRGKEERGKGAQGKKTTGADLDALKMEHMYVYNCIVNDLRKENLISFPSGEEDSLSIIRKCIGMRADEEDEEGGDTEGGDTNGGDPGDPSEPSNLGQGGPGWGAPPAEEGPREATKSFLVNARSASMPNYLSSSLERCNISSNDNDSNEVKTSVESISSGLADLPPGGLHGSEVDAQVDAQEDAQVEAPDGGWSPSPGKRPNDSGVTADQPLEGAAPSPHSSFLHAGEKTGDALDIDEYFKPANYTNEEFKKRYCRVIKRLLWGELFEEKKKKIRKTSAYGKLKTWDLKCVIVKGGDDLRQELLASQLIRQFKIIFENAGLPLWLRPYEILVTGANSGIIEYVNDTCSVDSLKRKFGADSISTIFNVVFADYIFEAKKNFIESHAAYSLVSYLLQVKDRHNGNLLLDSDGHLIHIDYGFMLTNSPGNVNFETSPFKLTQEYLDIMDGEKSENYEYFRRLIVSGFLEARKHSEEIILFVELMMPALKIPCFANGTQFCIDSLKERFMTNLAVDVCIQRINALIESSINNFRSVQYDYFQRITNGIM", "assay": "biochemical", "settings": "purified recombinant PvPI4K, 10 μM ATP, ADP-Glo; mean of N ≥ 2; read-out: PvPI4K IC50 ± SD"}, "HuMAP4K4": {"biological_target": "HuMAP4K4 (Homo sapiens, UniProt O95819)", "sequence (O95819 whole entry)": "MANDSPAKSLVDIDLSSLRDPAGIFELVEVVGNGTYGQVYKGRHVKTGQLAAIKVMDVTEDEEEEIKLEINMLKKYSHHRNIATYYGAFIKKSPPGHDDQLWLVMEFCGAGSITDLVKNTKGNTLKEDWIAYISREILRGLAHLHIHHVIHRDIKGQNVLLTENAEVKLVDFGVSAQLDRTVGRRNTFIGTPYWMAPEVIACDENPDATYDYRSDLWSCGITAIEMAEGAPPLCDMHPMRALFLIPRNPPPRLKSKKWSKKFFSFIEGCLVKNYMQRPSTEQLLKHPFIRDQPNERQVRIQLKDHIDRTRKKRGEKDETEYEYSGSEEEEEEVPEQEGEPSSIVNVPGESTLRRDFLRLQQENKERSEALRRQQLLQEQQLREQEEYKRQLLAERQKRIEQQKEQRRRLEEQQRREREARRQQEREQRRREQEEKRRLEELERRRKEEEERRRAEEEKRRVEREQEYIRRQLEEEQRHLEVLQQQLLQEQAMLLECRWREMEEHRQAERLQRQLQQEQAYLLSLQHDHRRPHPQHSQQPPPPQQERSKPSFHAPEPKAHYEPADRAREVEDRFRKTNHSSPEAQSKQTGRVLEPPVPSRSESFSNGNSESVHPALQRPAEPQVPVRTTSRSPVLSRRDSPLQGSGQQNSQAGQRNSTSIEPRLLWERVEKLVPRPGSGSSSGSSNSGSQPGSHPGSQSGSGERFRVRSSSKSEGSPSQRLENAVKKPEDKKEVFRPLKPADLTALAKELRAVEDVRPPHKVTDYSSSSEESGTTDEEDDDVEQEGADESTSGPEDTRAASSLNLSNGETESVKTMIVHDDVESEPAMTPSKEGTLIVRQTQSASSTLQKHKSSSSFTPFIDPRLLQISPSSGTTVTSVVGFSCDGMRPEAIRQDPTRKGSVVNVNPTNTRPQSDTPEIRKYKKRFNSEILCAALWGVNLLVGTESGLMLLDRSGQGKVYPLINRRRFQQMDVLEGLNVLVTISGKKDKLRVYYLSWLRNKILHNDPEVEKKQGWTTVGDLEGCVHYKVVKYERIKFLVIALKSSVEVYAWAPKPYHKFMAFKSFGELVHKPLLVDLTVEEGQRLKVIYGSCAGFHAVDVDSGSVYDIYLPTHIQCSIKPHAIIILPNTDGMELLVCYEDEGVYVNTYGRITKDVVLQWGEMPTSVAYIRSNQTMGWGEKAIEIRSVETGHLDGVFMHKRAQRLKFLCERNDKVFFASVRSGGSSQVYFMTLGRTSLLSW", "assay": "Human kinase inhibition, HuMAP4K4", "settings": "read-out: HuMAP4K4, IC50"}, "Dd2": {"test_system": "Dd2", "assay": "microbe, parasite or virus in culture", "type": "cell-based", "settings": "Plasmodium falciparum, DD2, 72 h, read-out: Dd2 IC50 ± SD"}, "β-hematin (βH) formation": {"test_system": "β-hematin (βH) formation", "assay": "NP-40 mediated cell-free β-hematin assay", "settings": "read-out: β-hematin IC50; cell-free NP-40 detergent-mediated assay; n = 2"}, "[4]": {"assay": "In vitro microsomal stability, rat", "type": "in vitro ADME", "settings": "rat liver microsomes, pH 7.4, read-out: microsomal CLint, app rat"}, "[5]": {"test_system": "Chinese Hamster Ovary (CHO) cell line", "assay": "cells", "type": "cell-based", "settings": "Cricetulus griseus, CHO; MTT assay over 48h; read-out: CHO IC50"}, "cytochrome P450 2D6": {"biological_target": "cytochrome P450 2D6 (Homo sapiens, UniProt P10635)", "sequence (P10635 whole entry)": "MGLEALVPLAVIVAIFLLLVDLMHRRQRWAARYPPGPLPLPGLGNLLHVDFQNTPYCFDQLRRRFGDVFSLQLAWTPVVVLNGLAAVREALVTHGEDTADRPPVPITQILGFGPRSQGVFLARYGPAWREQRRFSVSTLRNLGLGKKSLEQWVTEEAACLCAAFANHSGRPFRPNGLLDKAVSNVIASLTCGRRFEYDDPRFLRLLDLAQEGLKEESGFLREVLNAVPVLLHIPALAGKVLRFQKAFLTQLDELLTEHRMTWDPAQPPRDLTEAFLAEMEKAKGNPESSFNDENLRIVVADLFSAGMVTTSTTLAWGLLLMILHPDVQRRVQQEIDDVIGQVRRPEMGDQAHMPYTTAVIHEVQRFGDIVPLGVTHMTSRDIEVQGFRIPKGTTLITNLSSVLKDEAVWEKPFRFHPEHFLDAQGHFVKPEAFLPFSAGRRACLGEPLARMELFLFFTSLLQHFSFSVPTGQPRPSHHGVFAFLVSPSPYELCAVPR", "assay": "Cytochrome P450 inhibition, 2D6", "type": "in vitro ADME", "description": "Table 10 In Vitro and In Vivo Pharmacokinetic Parameters ^a | column: 14"}, "[6]": {"test_system": "P. falciparum PI4K conditional knockdown line", "assay": "microbe, parasite or virus in culture", "type": "cell-based, Plasmodium falciparum", "settings": "for IC50: Plasmodium falciparum"}, "HuMINK1": {"biological_target": "HuMINK1 (Homo sapiens, UniProt Q8N4C8)", "sequence (Q8N4C8 whole entry)": "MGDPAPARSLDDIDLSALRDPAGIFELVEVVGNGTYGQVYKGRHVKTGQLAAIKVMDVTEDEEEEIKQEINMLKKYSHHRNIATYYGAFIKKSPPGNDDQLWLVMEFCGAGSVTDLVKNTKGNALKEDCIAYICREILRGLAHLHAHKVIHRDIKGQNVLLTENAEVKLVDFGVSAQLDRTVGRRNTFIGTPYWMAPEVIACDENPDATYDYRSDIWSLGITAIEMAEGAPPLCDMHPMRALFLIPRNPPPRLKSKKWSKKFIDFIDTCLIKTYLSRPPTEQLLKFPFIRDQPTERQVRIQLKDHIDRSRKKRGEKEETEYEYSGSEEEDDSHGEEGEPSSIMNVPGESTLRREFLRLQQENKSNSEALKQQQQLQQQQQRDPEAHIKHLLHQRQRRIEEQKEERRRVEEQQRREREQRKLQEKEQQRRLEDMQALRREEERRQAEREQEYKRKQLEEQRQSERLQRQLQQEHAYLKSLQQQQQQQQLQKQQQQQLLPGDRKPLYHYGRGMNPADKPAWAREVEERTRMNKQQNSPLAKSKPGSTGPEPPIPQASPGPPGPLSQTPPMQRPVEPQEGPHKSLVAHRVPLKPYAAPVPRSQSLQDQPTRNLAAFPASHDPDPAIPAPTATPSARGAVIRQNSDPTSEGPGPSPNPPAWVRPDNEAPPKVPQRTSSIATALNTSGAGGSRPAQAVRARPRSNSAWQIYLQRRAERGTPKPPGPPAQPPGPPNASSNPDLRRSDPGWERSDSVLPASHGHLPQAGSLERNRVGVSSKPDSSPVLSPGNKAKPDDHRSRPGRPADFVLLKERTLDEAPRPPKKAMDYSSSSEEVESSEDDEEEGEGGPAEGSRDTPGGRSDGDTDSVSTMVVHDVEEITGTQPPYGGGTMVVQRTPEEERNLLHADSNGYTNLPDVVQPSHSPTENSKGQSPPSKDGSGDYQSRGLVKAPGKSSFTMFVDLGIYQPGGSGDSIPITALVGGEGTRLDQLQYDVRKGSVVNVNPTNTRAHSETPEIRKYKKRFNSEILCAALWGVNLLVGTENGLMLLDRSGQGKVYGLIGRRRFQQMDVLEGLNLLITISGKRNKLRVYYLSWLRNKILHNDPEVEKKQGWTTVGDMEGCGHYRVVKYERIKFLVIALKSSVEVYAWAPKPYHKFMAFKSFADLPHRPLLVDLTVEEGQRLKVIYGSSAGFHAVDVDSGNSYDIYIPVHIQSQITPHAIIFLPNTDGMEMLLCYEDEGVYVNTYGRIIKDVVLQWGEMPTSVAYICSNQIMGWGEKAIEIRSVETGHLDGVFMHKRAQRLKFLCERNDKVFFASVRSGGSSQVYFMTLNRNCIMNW", "assay": "Human kinase inhibition, HuMINK1", "settings": "read-out: HuMINK1, IC50"}, "[7]": {"test_system": "multidrug-resistant strain, K1", "assay": "Antiplasmodial activity, parasite lactate dehydrogenase assay, K1", "type": "cell-based, Plasmodium falciparum", "settings": "Plasmodium falciparum, K1, 72 h, parasite lactate dehydrogenase assay over 72 h; read-out: Pf IC50 ± SD K1"}, "[8]": {"assay": "In vitro microsomal stability, mouse", "type": "in vitro ADME", "settings": "mouse liver microsomes, pH 7.4, read-out: microsomal CLint, app mouse"}, "HuPI4Kβ": {"biological_target": "HuPI4Kβ (Homo sapiens, UniProt Q9UBF8)", "assay": "Human kinase inhibition, HuPI4Kβ", "settings": "read-out: HuPI4Kβ, IC50"}, "[9]": {"assay": "Mouse pharmacokinetic studies", "settings": "male, BalbC"}, "[10]": {"assay": "In vitro microsomal stability, human", "type": "in vitro ADME", "settings": "pooled human liver microsomes, pH 7.4, read-out: microsomal CLint, app human"}, "P. falciparum": {"test_system": "P. falciparum", "assay": "In vitro resistance selection under sustained drug pressure", "type": "cell-based, Plasmodium falciparum", "settings": "sustained drug pressure at 3 × IC90 for 60 days in vitro (data not shown)"}},
  "note": "Where “and” joins values, the source holds several entries; their conditions need not be identical. Equal entries are not always repeated. Where two headings read alike, the source gives them in different places.",
  "data": [
    {"smiles": "N[C@H]1CCN(c2ccnc3ccc(-c4ccc(C(F)(F)F)nc4)nc23)C1", "note": "[Compound 14, (3S)-1-[6-[6-(Trifluoromethyl)pyridin-3-yl]-1,5-naphthyridin-4-yl]pyrrolidin-3-amine]", "values": [
      {"measurement": "IC50", "setting": "cytochrome P450 3A4", "result": "> 20000", "unit": "nM"},
      {"measurement": "IC50", "setting": "HuPI3Kα", "result": 5200, "unit": "nM"},
      {"measurement": "IC50", "setting": "cytochrome P450 2C9", "result": "> 20000", "unit": "nM"},
      {"measurement": "solubility at 20 h", "setting": "[1]; PBS, pH 6.5", "result": 200, "unit": "µM"},
      {"measurement": "solubility at 20 h", "setting": "[1]; aqueous solution", "result": 200, "unit": "µM"},
      {"measurement": "fraction unbound at 5 h, 5 µM", "setting": "[2]", "result": 0.08},
      {"measurement": "IC50", "setting": "Dd2_PI4K_CNV", "result": "41 ± 10", "unit": "nM"},
      {"measurement": "IC50", "setting": "cytochrome P450 2C19", "result": 18000, "unit": "nM"},
      {"measurement": "IC50", "setting": "[3]", "result": "31 ± 3", "unit": "nM"},
      {"measurement": "IC50", "setting": "PvPI4K", "result": "1210 ± 220", "unit": "nM"},
      {"measurement": "IC50", "setting": "HuMAP4K4", "result": "> 10000", "unit": "nM"},
      {"measurement": "IC50", "setting": "Dd2", "result": "46 ± 20", "unit": "nM"},
      {"measurement": "IC50", "setting": "β-hematin (βH) formation", "result": "33000 nM and < 60000 nM"},
      {"measurement": "CLint scaled at 1 µM", "setting": "[4]", "result": "< 21", "unit": "mL/min/kg"},
      {"measurement": "IC50", "setting": "[5]", "result": 12000, "unit": "nM"},
      {"measurement": "IC50", "setting": "cytochrome P450 2D6", "result": "> 20000", "unit": "nM"},
      {"measurement": "IC50", "setting": "[6]; 72 h, read-out: ABS IC50 for PfPI4K cKD, N=1, +aTc, experiment N=1, +aTc (500 nM, control conditions), 72 hours", "result": 23, "unit": "nM"},
      {"measurement": "IC50", "setting": "[6]; 72 h, read-out: ABS IC50 for PfPI4K cKD, N=1, no aTc, experiment N=1, no aTc (PI4K knockdown), 72 hours", "result": 25, "unit": "nM"},
      {"measurement": "IC50", "setting": "[6]; 72 h, read-out: ABS IC50 for PfPI4K cKD, N=2, +aTc, experiment N=2, +aTc (500 nM, control conditions), 72 hours", "result": 37, "unit": "nM"},
      {"measurement": "IC50", "setting": "[6]; 72 h, read-out: ABS IC50 for PfPI4K cKD, N=2, no aTc, experiment N=2, no aTc (PI4K knockdown), 72 hours", "result": 38, "unit": "nM"},
      {"measurement": "IC50", "setting": "[6]; 72 h, read-out: ABS IC50 for PfPI4K cKD, N=3, +aTc, experiment N=3, +aTc (500 nM, control conditions), 72 hours", "result": 21, "unit": "nM"},
      {"measurement": "IC50", "setting": "[6]; 72 h, read-out: ABS IC50 for PfPI4K cKD, N=3, no aTc, experiment N=3, no aTc (PI4K knockdown), 72 hours", "result": 20, "unit": "nM"},
      {"measurement": "IC50", "setting": "[6]; read-out: ABS IC50 for PfPI4K cKD, Mean + SD, +aTc, mean of N=3, +aTc (control conditions)", "result": "27 ± 9", "unit": "nM"},
      {"measurement": "IC50", "setting": "[6]; read-out: ABS IC50 for PfPI4K cKD, Mean + SD, no aTc, mean of N=3, no aTc (PI4K knockdown)", "result": "28 ± 9", "unit": "nM"},
      {"measurement": "ABS IC50 for PfPI4K cKD, N=1, fold shift", "setting": "[6]; experiment N=1, +aTc vs no aTc", "result": 0.90, "unit": "fold"},
      {"measurement": "ABS IC50 for PfPI4K cKD, N=2, fold shift", "setting": "[6]; experiment N=2, +aTc vs no aTc", "result": 0.98, "unit": "fold"},
      {"measurement": "ABS IC50 for PfPI4K cKD, N=3, fold shift", "setting": "[6]; experiment N=3, +aTc vs no aTc", "result": 1.04, "unit": "fold"},
      {"measurement": "ABS IC50 for PfPI4K cKD, mean fold shift (fold decrease in IC50 on knockdown)", "setting": "[6]; mean, +aTc vs no aTc", "result": 0.97, "unit": "fold"},
      {"measurement": "IC50", "setting": "HuMINK1", "result": "> 10000", "unit": "nM"},
      {"measurement": "IC50", "setting": "[7]", "result": "87 ± 30", "unit": "nM"},
      {"measurement": "CLint scaled at 1 µM", "setting": "[8]", "result": "< 46", "unit": "mL/min/kg"},
      {"measurement": "IC50", "setting": "HuPI4Kβ", "result": "> 10000", "unit": "nM"},
      {"measurement": "in vivo mouse CLu", "setting": "[9]", "result": 135, "unit": "mL/min/kg"},
      {"measurement": "Vd at 24 h", "setting": "[9]; in vivo, iv, 2 mg/kg", "result": 4.4, "unit": "L/kg"},
      {"measurement": "half-life at 24 h", "setting": "[9]; in vivo, iv, 2 mg/kg", "result": 6.3, "unit": "h"},
      {"measurement": "bioavailability at 24 h", "setting": "[9]; in vivo, po", "result": 27, "unit": "%"},
      {"measurement": "in vivo mouse CLb", "setting": "[9]; iv, 2 mg/kg", "result": 10.80, "unit": "mL/min/kg"},
      {"measurement": "CLint scaled at 1 µM", "setting": "[10]", "result": "< 13", "unit": "mL/min/kg"},
      {"measurement": "Attempts to raise mutants", "setting": "P. falciparum", "result": "not successful"}
    ]}
  ]
}
